Like-named read-outs stand apart in the source and are kept apart here.

Data set [1] concerns ZIKV H/PAN/2016/BEI-259634. The data set is classed as cell-based, Zika virus. As to conditions: GSC 387 cells, H/PAN MOI 10, 72 h post-infection.
In another data set the test system is human neural stem cells. The data set is described as follows: CellTiter-Glo toxicity in mock-infected neural stem cells. As to conditions: mock-infected neural stem cells, 72 h, CellTiter-Glo, ± SE, n = 4.
The subject of data set [2] is ZIKV PRVABC59/Human/2015/Puerto Rico. The data set is described as follows: CellTiter-Glo activity assay, ZIKV PRVABC59-infected neural stem cells. It counts as cell-based, Zika virus. The conditions noted are these: for EC50: human neural stem cells, MOI 10, 72 h post-infection, CellTiter-Glo, ± SE, n = 4. (In general: ATP-based viability assays read luminescence as a measure of living cells.)

The subject of data set [3] is ZIKV H/PAN/2016/BEI-259634. The data set is described as follows: Plaque assay of ZIKV titers from treated hNSC cultures. As to conditions: human fetal neural stem cells, H/PAN MOI 0.1, 48 h post-infection. The data set is classed as cell-based, Zika virus.
Data set [4] has as its system ZIKV H/PAN/2016/BEI-259634. The data set is described as follows: CellTiter-Glo activity assay, ZIKV H/PAN-infected neural stem cells. The data set is classed as cell-based, Zika virus. The conditions noted are these: read-out: EC50 H/PAN ZIKV.
In the next data set the target is ZIKV RdRP (Zika virus, UniProt A0A024B7W1). Put plainly: Single nucleotide incorporation assay. It counts as biochemical. The conditions noted are these: 150 µM nucleotide, 37 °C; for observed rate of incorporation, kobs: 1 µM RdRP, 200 nM P/T substrate, single exponential fit, n = 2.
A short description of data set [5]: CellTiter-Glo toxicity in mock-infected neural stem cells. The conditions noted are these: human.
Setting [6] is: human neural stem cells, MOI 10, 72 h post-infection, CellTiter-Glo, ± SE, n = 4.
The mark [7] stands for this setting: Zika virus, Neural stem cell, in Homo sapiens.

Chain of ZIKV RdRP (A0A024B7W1 2772-3423): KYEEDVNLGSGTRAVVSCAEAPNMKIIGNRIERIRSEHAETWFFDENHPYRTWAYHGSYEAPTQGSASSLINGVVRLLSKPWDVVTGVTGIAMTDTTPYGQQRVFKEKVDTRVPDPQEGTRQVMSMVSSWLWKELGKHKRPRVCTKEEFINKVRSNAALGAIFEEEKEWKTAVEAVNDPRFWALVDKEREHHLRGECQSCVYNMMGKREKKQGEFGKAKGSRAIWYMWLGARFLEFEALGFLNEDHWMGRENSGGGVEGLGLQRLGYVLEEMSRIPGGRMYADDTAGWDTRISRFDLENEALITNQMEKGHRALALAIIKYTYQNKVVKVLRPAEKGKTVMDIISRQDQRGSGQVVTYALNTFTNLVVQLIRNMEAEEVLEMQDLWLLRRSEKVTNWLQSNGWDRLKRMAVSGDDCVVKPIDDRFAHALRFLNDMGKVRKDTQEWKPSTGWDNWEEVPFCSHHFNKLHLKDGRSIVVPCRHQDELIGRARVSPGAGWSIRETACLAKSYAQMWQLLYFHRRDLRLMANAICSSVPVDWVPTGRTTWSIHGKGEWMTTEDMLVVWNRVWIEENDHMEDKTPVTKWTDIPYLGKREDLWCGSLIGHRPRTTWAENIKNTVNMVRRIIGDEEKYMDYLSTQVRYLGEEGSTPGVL

As for `CC(C)OC(=O)C(C)NP(=O)(OCC1OC(n2ccc(=O)[nH]c2=O)C(C)(O)C1O)Oc1ccccc1` (centres unmarked) [2′-C-methyluridine aryloxyl phosphoramidate], the “protection from ZIKV-induced cytopathic effect” value in data set [1] (10 µM compound) was “better able to protect against ZIKV-induced cytopathic effect”; in data set [1] (30 µM compound), “able to protect against the cytopathic effect”. Further, in the data set on human neural stem cells, the cytotoxic concentration (CC50) was 47 ± 1 µM. The EC50 in data set [2] amounted to 1 ± 1 µM; in data set [4] (setting [6]), 2 ± 1 µM. The “ZIKV titers by plaque assay” value in data set [3] (10 µM compound) and in data set [3] (30 µM compound) was “undetectable levels” each time.
In the case of `C[C@@]1(O)[C@H](O)[C@@H](COP(=O)(O)OP(=O)(O)OP(=O)(O)O)O[C@H]1n1ccc(=O)[nH]c1=O` [2′-C-methyluridine triphosphate], at ZIKV RdRP, the “observed rate of incorporation, kobs” value is listed as 0.016 ± 0.001 % incorporation min^−1; the “maximal incorporation (plateau)” value was 35%; the “time to half maximal incorporation” value is ~ 45 min.
For the molecule `O=c1ccn([C@@H]2O[C@H](COP(=O)(O)OP(=O)(O)OP(=O)(O)O)[C@@H](O)[C@H]2O)c(=O)[nH]1` [UTP], at ZIKV RdRP, the “observed rate of incorporation, kobs” value is 0.151 ± 0.004 % incorporation min^−1; the “time to full incorporation” value is reported as ~ 30 min; the “time to half maximal incorporation” value is reported as ≤ 5 min.
With `CSCCOP(=O)(NCCc1c[nH]c2ccccc12)OCC1OC(n2ccc(=O)[nH]c2=O)C(C)(O)C1O` (centres unmarked) [(5-(2,4-dioxo-3,4-dihydropyrimidin-1(2H)-yl)-3,4-dihydroxy-4-methyltetrahydrofuran-2-yl)methyl (2-(methylthio)ethyl) (2-(1H-indol-3-yl)ethyl)phosphoramidate], in data set [5] (mock-infected neural stem cells (NSCs)), the CC50 at 72 h was > 50 µM. The EC50 in data set [2] (setting [7]) was > 50 µM; in data set [4] (Zika virus, Neural stem cell, human neural stem cells, MOI 10, 72 h post-infection, CellTiter-Glo, ± SE, n = 4), > 50 µM. Besides, in data set [2] (neural stem cells, PRVABC59 and H/PAN strains, highest concentration 50 µM), the “anti-ZIKV activity (in words)” value is “completely abolished activity”.
With `COC1C(COP(=O)(NC(C)C(=O)OC(C)C)Oc2ccccc2)OC(n2ccc(=O)[nH]c2=O)C1O` (centres unmarked) [3′-O-Methyluridine aryloxyl phosphoramidate], the 50% cytotoxic concentration (CC50) in the data set with human neural stem cells is > 50 µM. In addition, the EC50 in data set [2] and in data set [4] (setting [6]) was > 50 µM each time.
Turning to `C[C@@]1(F)[C@H](O)[C@@H](COP(=O)(O)OP(=O)(O)OP(=O)(O)O)O[C@H]1n1ccc(=O)[nH]c1=O` [2′-fluoro-2′-C-methyluridine triphosphate], at ZIKV RdRP, the “observed rate of incorporation, kobs” value came out at 0.0085 ± 0.001 % incorporation min^−1; the “maximal incorporation (plateau)” value stood at 15%; the “time to half maximal incorporation” value is recorded as ~90 min.
For `CC(C)OC(=O)[C@H](C)N[P@](=O)(OC[C@H]1O[C@@H](n2ccc(=O)[nH]c2=O)[C@](C)(F)[C@@H]1O)Oc1ccccc1` [Sofosbuvir, reference compound], the “protection from ZIKV-induced cytopathic effect” value in data set [1] (30 µM compound) was “able to protect against the cytopathic effect”. For the same molecule, in data set [5], the CC50 at 72 h is > 50 µM. Moreover, the EC50 is 35 ± 1 µM in data set [2] (setting [7]) and 46 ± 1 µM in data set [4] (Zika virus, Neural stem cell, 72 h). In addition, the “ZIKV titers by plaque assay” value in data set [3] (30 µM compound) is recorded as “undetectable levels”.
`CC(C)OC(=O)C(C)NP(=O)(OCC1OC(n2cnc3c(N)ncnc32)C(C)(O)C1O)Oc1ccccc1` (centres unmarked) [2′-C-Methyladenosine aryloxyl phosphoramidate] displayed a CC50 with human neural stem cells of 42 ± 1 µM. In addition, the EC50 was 10 ± 1 µM in data set [2] and 18 ± 1 µM in data set [4] (setting [6]).
Taken in the same sequence, the figures for `CC(C)OC(=O)C(C)NP(=O)(OCC1CC(O)C(n2cnc3c(N)ncnc32)O1)Oc1ccccc1` (centres unmarked) [3′-Deoxyadenosine aryloxyl phosphoramidate] were > 50 µM, > 50 µM and > 50 µM.
As for `CC(C)OC(=O)C(C)NP(=O)(OCC1OC(n2ccc(N)nc2=O)C(C)(O)C1O)Oc1ccccc1` (centres unmarked) [2′-C-Methylcytidine aryloxyl phosphoramidate], the values for the EC50 in data set [2] and in data set [4] (setting [6]) were 48 ± 1 µM and > 50 µM, respectively.
As to `COC1C(O)C(COP(=O)(NC(C)C(=O)OC(C)C)Oc2ccccc2)OC1n1ccc(N)nc1=O` (centres unmarked) [2′-O-Methylcytidine aryloxyl phosphoramidate], the CC50 with human neural stem cells was > 50 µM. For the same molecule, the EC50 in data set [2] and in data set [4] (setting [6]) was > 50 µM each time.
Turning to `CC(C)OC(=O)C(C)NP(=O)(OCC1CC(O)C(n2ccc(N)nc2=O)O1)Oc1ccccc1` (centres unmarked) [3′-Deoxycytidine aryloxyl phosphoramidate], the CC50 in the data set on human neural stem cells was > 50 µM. Moreover, the EC50 in data set [2] and in data set [4] (setting [6]) was > 50 µM in each case.
For `C#CC1(O)C(O)C(COP(=O)(NC(C)C(=O)OC(C)C)Oc2ccccc2)OC1n1ccc(=O)[nH]c1=O` (centres unmarked) [2′-C-Ethynyluridine Aryloxy Phosphoramidate], the CC50 in the data set with human neural stem cells was > 50 µM. In addition, the EC50 in data set [4] (setting [6]) amounted to 0.8 ± 1 µM.

One may read the CC50 as the concentration giving 50% cytotoxicity. A high value points to better tolerance by the cells.

The values are drawn from article PMC6521205 (Viruses, 2019).
